Laboratory results published in US8530478B2, “Piperazine derivatives used as CAV2.2 calcium channel modulators” (Convergence Pharmaceuticals Limited, priority 2008, dated 2013).
Counter-ions that a name gives are not always drawn.

target: T1, hCav2.2 (Homo sapiens, UniProt Q00975); assay: hCav2.2 assay (IonWorks planar array electrophysiology, HEK293 stable cell line); format: cell-based; details: inhibition of current elicited by the 1st depolarising pulse; HEK293 cells expressing human Cav2.2 α/β3/α2δ1; tested in the form described in the Examples; read-out: mean pIC50 (tonic pIC50) (converted)
T1 construct: expressed in transfected cells; plasmids pCIN5-hCav2.2, pCIH-hCav β3, pCIP-α2δ1
Description: Compounds of the invention may be tested for in vitro biological activity in the hCav2.2 assay in accordance with the following studies:
Stable cell lines expressing the human Cav2.2 α (α1B) subunit, along with the human β3 and α2δ1 auxiliary subunits were created following sequential transfection and selection of human embryonic kidney (HEK293) cells. HEK293 cells were cultured in Dulbecco's modified Eagles media/F12 media (Invitrogen, Cat # 041-95750V) containing 10% foetal bovine serum, with added L-glutamine (2 mM; Invitrogen, Cat # 25030-024) and non-essential amino acids (5%; Invitrogen, Cat # 11140-035). Initially HEK293 cells were transfected with two plasmid vectors for expression of the hCav2.2 α subunit (pCIN5-hCav2.2 which carries a neomycin resistance marker) and the hCav β3 subunit (pCIH-hCav β3 which carries a hygromycin resistance marker). Clonal cell lines were isolated following selection in media supplemented with 0.4 mg ml^−1 Geneticin G418 (Invitrogen, Cat # 10131-027) and 0.1 mg ml^−1 hygromycin (Invitrogen, Cat # 10687-010). These clonal cell lines were assessed for Cav2.2 α/β3-mediated current expression using the IonWorks planar array electrophysiology technology (described below). A clonal line was identified that gave a reasonable level of functional Cav2.2 α/β3 current expression. This cell line was transfected with a plasmid vector for expression of the human α2δ1 subunit (pCIP-α2δ1 which carries a puromycin resistance marker) and clonal cell lines isolated following selection in media containing 0.62 μg ml^−1 puromycin (Sigma, Cat # P-7255), in addition to 0.4 mg ml^−1 Geneticin G418 and 0.1 mg ml^−1 hygromycin. Several cell lines were identified that gave robust levels of Cav2.2 α/β3/α2δ1-mediated current expression and one of these was selected for compound profiling. Expression of all three subunits within this cell line was continuously maintained by the inclusion of G418 (0.4 mg ml^−1), hygromycin (0.1 mg ml^−1) and puromycin (0.62 μg ml^−1). Cells were maintained at 37° C. in a humidified environment containing 5% CO2 in air. Cells were liberated from the T175 culture flasks for passage and harvesting using TrpLE (Invitrogen, Cat # 12604-013).
Cells were grown to 30-60% confluence in T175 flasks and maintained at 30° C. for 24 hrs prior to recording. Cells were lifted by removing the growth media, washing with Ca^2+ free PBS (Invitrogen, Cat #14190-094) and incubating with 3 ml of warmed (37° C.) TrpLE (Invitrogen, Cat # 12604-013) for 6 minutes. Lifted cells were suspended in 10 ml of extracellular buffer. Cell suspension was then placed into a 15 ml tube and centrifuged for 2 minutes at 700 rpm. After centrifugation, the supernatant was removed and the cell pellet was resuspended in 4.5 ml of extracellular solution.
Currents were recorded at room temperature (21-23° C.) using the IonWorks planar array electrophysiology technology (Molecular Devices Corp.). Stimulation protocols and data acquisition were carried out using a microcomputer (Dell Pentium 4). In order to determine planar electrode hole resistances (Rp), a 10 mV, 160 ms potential difference was applied across each hole. These measurements were performed before cell addition. After cell addition a seal test was performed prior to antibiotic (amphotericin) circulation to achieve intracellular access. Leak subtraction was conducted in all experiments by applying a 160 ms hyperpolarizing (10 mV) prepulse 200 ms before the test pulses to measure leak conductance. Test pulses stepping from the holding potential (VH) of −90 mV to +10 mV were applied for 20 ms and repeated 10 times at a frequency of 10 Hz. In all experiments, the test pulse protocol was performed in the absence (pre-read) and presence (post-read) of a compound. Pre- and post-reads were separated by a compound addition followed by a 3-3.5 min incubation. […]

T1 sequence (Q00975 whole entry): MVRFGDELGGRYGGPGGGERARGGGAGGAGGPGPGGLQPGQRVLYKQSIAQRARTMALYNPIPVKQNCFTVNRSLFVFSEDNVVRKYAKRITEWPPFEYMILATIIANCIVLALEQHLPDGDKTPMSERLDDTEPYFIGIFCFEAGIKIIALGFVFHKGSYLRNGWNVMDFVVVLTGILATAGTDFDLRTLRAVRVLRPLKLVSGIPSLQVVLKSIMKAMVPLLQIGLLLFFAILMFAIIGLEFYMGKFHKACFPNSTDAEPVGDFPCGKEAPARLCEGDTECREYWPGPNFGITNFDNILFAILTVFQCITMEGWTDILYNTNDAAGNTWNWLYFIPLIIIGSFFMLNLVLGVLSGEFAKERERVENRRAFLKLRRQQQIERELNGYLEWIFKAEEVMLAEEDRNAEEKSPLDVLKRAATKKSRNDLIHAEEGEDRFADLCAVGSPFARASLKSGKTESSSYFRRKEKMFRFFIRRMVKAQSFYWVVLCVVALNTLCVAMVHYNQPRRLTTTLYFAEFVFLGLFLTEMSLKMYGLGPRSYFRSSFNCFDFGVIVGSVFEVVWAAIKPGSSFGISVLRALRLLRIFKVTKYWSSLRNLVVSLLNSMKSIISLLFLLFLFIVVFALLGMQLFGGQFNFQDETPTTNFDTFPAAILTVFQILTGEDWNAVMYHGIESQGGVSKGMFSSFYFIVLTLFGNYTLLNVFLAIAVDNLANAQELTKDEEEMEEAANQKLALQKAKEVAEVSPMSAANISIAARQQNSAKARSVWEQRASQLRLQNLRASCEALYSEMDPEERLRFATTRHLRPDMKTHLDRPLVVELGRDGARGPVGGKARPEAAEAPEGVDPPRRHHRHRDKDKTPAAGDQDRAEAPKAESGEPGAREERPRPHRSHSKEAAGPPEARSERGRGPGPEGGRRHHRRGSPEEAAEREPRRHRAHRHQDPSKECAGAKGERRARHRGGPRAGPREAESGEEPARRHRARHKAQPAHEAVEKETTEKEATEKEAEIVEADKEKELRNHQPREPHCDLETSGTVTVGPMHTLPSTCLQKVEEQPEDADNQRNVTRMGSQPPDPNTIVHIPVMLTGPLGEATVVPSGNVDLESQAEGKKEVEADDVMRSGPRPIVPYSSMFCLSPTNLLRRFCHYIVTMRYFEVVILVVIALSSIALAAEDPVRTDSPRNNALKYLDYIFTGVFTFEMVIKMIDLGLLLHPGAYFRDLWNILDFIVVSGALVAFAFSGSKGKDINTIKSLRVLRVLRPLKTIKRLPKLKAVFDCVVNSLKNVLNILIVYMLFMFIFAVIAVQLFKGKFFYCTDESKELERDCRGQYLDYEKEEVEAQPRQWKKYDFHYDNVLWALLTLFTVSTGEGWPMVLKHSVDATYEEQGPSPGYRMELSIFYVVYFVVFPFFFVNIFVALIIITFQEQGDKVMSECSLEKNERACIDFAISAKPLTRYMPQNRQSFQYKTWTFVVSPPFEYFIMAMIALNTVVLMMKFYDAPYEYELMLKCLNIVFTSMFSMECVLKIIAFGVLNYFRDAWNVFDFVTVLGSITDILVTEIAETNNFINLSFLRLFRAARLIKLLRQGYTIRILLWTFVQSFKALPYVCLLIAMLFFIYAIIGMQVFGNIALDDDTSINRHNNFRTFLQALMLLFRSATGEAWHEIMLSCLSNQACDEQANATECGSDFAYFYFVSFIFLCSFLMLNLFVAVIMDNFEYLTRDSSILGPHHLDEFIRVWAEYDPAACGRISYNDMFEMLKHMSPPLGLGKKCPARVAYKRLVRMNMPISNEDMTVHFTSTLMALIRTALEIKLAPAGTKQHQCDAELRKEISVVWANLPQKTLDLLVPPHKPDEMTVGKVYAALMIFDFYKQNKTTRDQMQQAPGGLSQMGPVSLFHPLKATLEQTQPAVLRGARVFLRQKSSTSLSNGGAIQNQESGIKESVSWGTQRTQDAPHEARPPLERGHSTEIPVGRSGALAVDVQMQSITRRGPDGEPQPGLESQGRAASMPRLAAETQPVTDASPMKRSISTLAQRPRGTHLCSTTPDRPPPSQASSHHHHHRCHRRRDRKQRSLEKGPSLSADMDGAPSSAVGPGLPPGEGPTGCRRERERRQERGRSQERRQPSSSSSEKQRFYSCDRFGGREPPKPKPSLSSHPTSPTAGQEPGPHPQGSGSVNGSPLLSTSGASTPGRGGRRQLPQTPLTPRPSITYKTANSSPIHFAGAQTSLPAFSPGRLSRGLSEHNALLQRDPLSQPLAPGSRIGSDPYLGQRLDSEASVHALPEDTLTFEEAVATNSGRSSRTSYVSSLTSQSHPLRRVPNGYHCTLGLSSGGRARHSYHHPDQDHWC
T1 sequence (P54284 whole entry partner): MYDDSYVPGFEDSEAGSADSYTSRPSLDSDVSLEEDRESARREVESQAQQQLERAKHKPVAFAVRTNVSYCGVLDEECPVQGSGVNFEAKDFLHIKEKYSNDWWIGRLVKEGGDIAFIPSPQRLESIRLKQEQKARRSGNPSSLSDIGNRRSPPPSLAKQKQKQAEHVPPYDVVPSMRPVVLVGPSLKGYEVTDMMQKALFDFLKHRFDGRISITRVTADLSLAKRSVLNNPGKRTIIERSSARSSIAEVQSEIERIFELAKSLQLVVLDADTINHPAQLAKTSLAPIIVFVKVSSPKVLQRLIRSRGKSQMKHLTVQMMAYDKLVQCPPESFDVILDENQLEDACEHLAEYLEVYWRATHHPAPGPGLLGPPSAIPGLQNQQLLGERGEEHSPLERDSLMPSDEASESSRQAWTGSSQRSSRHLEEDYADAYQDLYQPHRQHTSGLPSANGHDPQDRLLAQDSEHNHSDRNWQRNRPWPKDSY
T1 sequence (P54289 25-956 partner): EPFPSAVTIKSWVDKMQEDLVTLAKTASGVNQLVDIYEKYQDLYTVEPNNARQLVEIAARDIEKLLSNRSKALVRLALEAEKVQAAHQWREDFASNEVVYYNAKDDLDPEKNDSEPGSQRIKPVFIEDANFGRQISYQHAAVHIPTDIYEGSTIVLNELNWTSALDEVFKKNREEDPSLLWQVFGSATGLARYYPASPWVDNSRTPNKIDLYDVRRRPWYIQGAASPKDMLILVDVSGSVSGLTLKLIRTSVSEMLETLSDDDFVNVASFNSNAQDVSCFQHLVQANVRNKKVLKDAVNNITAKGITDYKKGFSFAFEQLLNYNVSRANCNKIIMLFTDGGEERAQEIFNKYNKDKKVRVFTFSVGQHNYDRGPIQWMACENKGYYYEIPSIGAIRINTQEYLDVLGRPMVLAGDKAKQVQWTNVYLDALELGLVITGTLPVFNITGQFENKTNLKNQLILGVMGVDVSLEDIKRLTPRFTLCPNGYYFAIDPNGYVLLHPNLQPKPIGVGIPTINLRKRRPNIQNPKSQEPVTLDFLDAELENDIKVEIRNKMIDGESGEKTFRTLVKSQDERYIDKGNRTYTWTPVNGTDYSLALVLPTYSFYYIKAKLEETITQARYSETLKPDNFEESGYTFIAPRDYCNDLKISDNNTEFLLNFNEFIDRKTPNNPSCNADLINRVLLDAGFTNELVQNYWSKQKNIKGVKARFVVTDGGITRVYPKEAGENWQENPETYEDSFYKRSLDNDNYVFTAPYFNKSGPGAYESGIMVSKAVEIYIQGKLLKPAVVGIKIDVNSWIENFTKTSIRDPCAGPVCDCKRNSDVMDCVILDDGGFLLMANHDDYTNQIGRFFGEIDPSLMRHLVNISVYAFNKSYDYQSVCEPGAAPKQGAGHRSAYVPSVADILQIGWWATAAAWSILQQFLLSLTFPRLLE
T1 sequence (P54289 957-1103 partner): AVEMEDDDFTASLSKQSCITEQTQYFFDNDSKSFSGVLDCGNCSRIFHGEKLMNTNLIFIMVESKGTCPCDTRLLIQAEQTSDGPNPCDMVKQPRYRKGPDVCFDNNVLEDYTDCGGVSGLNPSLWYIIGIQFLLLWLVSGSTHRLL

IC50, ≥ 31.6 µM:
Cc1cccnc1C(=O)N1CCN(S(=O)(=O)c2ccc(C(F)(F)F)cc2)C[C@@H]1C [Example 1, (2S)-2-Methyl-1-[(3-methyl-2-pyridinyl)carbonyl]-4-{[4-(trifluoromethyl)phenyl]sulfonyl}piperazine hydrochloride]
Cc1cccc(C(=O)N2CCN(S(=O)(=O)c3ccc(C(F)(F)F)cc3)CC2)n1 [Example 2, 1-[(6-Methyl-2-pyridinyl)carbonyl]-4-{[4-(trifluoromethyl)phenyl]sulfonyl}piperazine]
Cc1cccnc1C(=O)N1CCN(S(=O)(=O)c2ccc(C(F)(F)F)cc2)CC1 [Example 3, 1-[(3-Methyl-2-pyridinyl)carbonyl]-4-{[4-(trifluoromethyl)phenyl]sulfonyl}piperazine]
C[C@H]1CN(S(=O)(=O)c2ccc(C(F)(F)F)cc2)CCN1C(=O)c1ccccn1 [Example 4, (2S)-2-methyl-1-(2-pyridinylcarbonyl)-4-{[4-(trifluoromethyl)phenyl]sulfonyl}piperazine formic acid salt (1:1)]
O=C(c1cc(-c2ccccn2)ccn1)N1CCN(S(=O)(=O)c2ccc(C(F)(F)F)cc2)CC1 [Example 5, 2′-[(4-{[4-(Trifluoromethyl)phenyl]sulfonyl}-1-piperazinyl)carbonyl]-2,4′-bipyridine]
C[C@H]1CN(C(=O)c2ccccn2)CCN1S(=O)(=O)c1ccc(Cl)cc1 [Example 6, (2S)-1-[(4-Chlorophenyl)sulfonyl]-2-methyl-4-(2-pyridinylcarbonyl)piperazine hydrochloride]
O=C(c1ccc(-c2ccccn2)cn1)N1CCN(S(=O)(=O)c2ccc(C(F)(F)F)cc2)CC1 [Example 7, 6′[(4-{[4-(Trifluoromethyl)phenyl]sulfonyl}-1-piperazinyl)carbonyl]-2,3′-bipyridine]
O=C(c1ccncc1)N1CCN(S(=O)(=O)c2ccc(C(F)(F)F)cc2)CC1 [Example 8, 1-(4-Pyridinylcarbonyl)-4-{[4-(trifluoromethyl)phenyl]sulfonyl}piperazine]
Cc1cc(C(=O)N2CCN(S(=O)(=O)c3ccc(C(F)(F)F)cc3)CC2)ccn1 [Example 9, 1-[(2-Methyl-4-pyridinyl)carbonyl]-4-{[4-(trifluoromethyl)phenyl]sulfonyl}piperazine]
Cc1cc(C(=O)N2CCN(S(=O)(=O)c3ccc(C(F)(F)F)cc3)C[C@@H]2C)ccn1 [Example 10, (2S)-2-methyl-1-[(2-methyl-4-pyridinyl)carbonyl]-4-{[4-(trifluoromethyl)phenyl]sulfonyl}piperazine formic acid salt (1:1)]
C[C@@H]1CN(S(=O)(=O)c2ccc(Cl)cc2)CCN1C(=O)c1ccccn1 [Example 11, (2R)-4-[(4-chlorophenyl)sulfonyl]-2-methyl-1-(2-pyridinylcarbonyl)piperazine]
C[C@H]1CN(S(=O)(=O)c2ccc(C#N)cc2)CCN1C(=O)c1ccccn1 [Example 12, 4-{[(3S)-3-methyl-4-(2-pyridinylcarbonyl)-1-piperazinyl]sulfonyl}benzonitrile]
Cc1cccnc1C(=O)N1CCN(S(=O)(=O)c2ccc(C(F)(F)F)cc2)[C@H](C)C1 [Example 13, (2R)-2-methyl-4-[(3-methyl-2-pyridinyl)carbonyl]-1-{[4-(trifluoromethyl)phenyl]sulfonyl}piperazine]
Cc1cccnc1C(=O)N1CCN(S(=O)(=O)c2ccc(C(F)(F)F)cc2)[C@@H](C)C1 [Example 14, (2S)-2-methyl-4-[(3-methyl-2-pyridinyl)carbonyl]-1-{[4-(trifluoromethyl)phenyl]sulfonyl}piperazine]
Cc1cc(C(=O)N2CCN(S(=O)(=O)c3ccc(C#N)cc3)C[C@@H]2C)ccn1 [Example 15, 4-({(3S)-3-methyl-4-[(2-methyl-4-pyridinyl)carbonyl]-1-piperazinyl}sulfonyl)benzonitrile]
